Test: Purity of everolimus in ethanol solution
Format: physicochemical
Settings: dissolved in ethanol, 3 hours/25° C.
Method: However, since an aqueous solution of a coating agent needs to be used in order to prepare such a film-coated tablet, the aforementioned method cannot be applied to drugs having low chemical stability against aqueous solvents. […] For example, everolimus as a rapamycin derivative has physical properties, by which when it is dissolved in ethanol to prepare an ethanol solution thereof, its purity is decreased by 4% or more under conditions of 3 hours/25° C. As such, it is not preferable that a film coating technique involving the use of an aqueous solvent be applied, as a pharmaceutical formulation of light-resistant preparations, to a pharmaceutical product tablet comprising, as an active ingredient, rapamycin and a derivative thereof.

CO[C@H]1C[C@@H]2CC[C@@H](C)[C@@](O)(O2)C(=O)C(=O)N2CCCC[C@H]2C(=O)O[C@H]([C@H](C)C[C@@H]2CC[C@@H](OCCO)[C@H](OC)C2)CC(=O)[C@H](C)/C=C(\C)[C@@H](O)[C@@H](OC)C(=O)[C@H](C)C[C@H](C)/C=C/C=C/C=C/1C [everolimus, 40-O-(2-hydroxyethyl)rapamycin]
decrease in purity in ethanol solution: ≥ 4%

Reference: patent US20190290631A1, “PHARMACEUTICAL COMPOSITION COMPRISING RAPAMYCIN OR DERIVATIVE THEREOF” (NIPPON KAYAKU KABUSHIKI KAISHA, priority 2016, published 2019)
